Measurements: patent publication US20250034216A1, “STEREOSELECTIVE COVALENT LIGANDS FOR ONCOGENIC AND IMMUNOLOGICAL PROTEINS” (The Scripps Research Institute, priority 2021, published 2025)

Assays:
Assay in all cases: IA-DTB cysteine engagement
Type in all cases: binding
[1] = biological target: T1, ABCA2_C2385 (Homo sapiens, UniProt Q9BZC7); settings: 22Rv1 cells, 20 μM probe, 1 h, relative to DMSO
T1 construct: endogenous in cells; host or cells: 22Rv1
In short: (§1)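 Cells were treated in situ with electrophilic probes, then lysed, and the lysates (2 mg/mL protein) were labeled with IA-DTB for 1 h at ambient temperature. After reduction, alkylation and trypsin digestion, labeled peptides were streptavidin-enriched, TMT-labeled and fractionated. Engagement ratios are probe vs DMSO reporter intensities, averaged across replicates.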

[2] = biological target: T2, ANGEL1_C27 (Homo sapiens, UniProt Q9UNK9); settings: 22Rv1 cells, 20 μM probe, 1 h, relative to DMSO
T2 construct: endogenous in cells; host or cells: 22Rv1
T2 sequence (Q9UNK9 1-670): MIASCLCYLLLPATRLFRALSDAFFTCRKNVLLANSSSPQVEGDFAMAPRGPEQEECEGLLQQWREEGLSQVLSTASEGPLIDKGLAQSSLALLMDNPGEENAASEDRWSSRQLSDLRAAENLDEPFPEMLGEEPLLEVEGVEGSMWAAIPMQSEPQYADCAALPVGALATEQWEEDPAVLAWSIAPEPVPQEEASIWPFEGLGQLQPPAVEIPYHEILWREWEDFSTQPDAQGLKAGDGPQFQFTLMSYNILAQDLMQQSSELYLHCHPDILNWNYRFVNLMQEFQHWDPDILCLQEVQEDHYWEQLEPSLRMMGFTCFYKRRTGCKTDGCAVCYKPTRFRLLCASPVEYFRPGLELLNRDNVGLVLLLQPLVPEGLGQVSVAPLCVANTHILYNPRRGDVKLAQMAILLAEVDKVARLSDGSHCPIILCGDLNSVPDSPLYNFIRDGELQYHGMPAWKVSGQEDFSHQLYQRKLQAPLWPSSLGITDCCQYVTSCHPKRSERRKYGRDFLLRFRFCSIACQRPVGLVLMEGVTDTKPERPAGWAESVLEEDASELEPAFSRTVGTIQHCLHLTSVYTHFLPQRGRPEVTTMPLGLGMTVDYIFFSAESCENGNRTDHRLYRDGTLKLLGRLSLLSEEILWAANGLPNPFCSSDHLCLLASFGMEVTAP
In short: as §1

[3] = biological target: T3, DCUN1D4_C219 (Homo sapiens, UniProt Q92564); settings: 22Rv1 cells, 20 μM probe, 1 h, relative to DMSO
T3 construct: endogenous in cells; host or cells: 22Rv1
T3 sequence (Q92564 1-292): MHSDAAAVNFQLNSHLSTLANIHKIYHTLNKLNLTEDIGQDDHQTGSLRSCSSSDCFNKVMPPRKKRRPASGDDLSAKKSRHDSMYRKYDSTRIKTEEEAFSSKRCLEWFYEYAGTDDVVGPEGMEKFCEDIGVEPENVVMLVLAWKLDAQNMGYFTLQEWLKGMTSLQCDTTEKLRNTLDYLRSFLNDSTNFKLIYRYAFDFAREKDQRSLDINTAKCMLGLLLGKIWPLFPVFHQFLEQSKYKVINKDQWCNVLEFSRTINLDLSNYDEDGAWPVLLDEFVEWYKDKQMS
In short: as §1

[4] = biological target: T4, ITPR2_C292 (Homo sapiens, UniProt Q14571); settings: 22Rv1 cells, 20 μM probe, 1 h, relative to DMSO
T4 construct: endogenous in cells; host or cells: 22Rv1
In short: as §1

[5] = biological target: T5, LIMK1_C349 (Homo sapiens, UniProt P53667); settings: 22Rv1 cells, relative to DMSO; for % engagement LIMK1_C349: 20 μM probe, 1 h; for % engagement LIMK1_349: 5 μM probe, 1 h (FIG. 5B)
T5 construct: endogenous in cells; host or cells: 22Rv1
In short: as §1

[6] = biological target: T6, MGST3_C56 (Homo sapiens, UniProt O14880); settings: 22Rv1 cells, 20 μM probe, 1 h, relative to DMSO
T6 construct: endogenous in cells; host or cells: 22Rv1
In short: as §1

[7] = biological target: T7, SRC_C280 (Homo sapiens, UniProt P12931); settings: 22Rv1 cells, 20 μM probe, 1 h, relative to DMSO
T7 construct: endogenous in cells; host or cells: 22Rv1
In short: as §1

T6 sequence (O14880 whole entry): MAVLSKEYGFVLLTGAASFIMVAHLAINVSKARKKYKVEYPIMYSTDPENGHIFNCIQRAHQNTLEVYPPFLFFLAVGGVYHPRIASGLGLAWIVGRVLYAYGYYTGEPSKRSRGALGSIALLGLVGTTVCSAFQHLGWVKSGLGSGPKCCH
T4 sequence (Q14571 whole entry): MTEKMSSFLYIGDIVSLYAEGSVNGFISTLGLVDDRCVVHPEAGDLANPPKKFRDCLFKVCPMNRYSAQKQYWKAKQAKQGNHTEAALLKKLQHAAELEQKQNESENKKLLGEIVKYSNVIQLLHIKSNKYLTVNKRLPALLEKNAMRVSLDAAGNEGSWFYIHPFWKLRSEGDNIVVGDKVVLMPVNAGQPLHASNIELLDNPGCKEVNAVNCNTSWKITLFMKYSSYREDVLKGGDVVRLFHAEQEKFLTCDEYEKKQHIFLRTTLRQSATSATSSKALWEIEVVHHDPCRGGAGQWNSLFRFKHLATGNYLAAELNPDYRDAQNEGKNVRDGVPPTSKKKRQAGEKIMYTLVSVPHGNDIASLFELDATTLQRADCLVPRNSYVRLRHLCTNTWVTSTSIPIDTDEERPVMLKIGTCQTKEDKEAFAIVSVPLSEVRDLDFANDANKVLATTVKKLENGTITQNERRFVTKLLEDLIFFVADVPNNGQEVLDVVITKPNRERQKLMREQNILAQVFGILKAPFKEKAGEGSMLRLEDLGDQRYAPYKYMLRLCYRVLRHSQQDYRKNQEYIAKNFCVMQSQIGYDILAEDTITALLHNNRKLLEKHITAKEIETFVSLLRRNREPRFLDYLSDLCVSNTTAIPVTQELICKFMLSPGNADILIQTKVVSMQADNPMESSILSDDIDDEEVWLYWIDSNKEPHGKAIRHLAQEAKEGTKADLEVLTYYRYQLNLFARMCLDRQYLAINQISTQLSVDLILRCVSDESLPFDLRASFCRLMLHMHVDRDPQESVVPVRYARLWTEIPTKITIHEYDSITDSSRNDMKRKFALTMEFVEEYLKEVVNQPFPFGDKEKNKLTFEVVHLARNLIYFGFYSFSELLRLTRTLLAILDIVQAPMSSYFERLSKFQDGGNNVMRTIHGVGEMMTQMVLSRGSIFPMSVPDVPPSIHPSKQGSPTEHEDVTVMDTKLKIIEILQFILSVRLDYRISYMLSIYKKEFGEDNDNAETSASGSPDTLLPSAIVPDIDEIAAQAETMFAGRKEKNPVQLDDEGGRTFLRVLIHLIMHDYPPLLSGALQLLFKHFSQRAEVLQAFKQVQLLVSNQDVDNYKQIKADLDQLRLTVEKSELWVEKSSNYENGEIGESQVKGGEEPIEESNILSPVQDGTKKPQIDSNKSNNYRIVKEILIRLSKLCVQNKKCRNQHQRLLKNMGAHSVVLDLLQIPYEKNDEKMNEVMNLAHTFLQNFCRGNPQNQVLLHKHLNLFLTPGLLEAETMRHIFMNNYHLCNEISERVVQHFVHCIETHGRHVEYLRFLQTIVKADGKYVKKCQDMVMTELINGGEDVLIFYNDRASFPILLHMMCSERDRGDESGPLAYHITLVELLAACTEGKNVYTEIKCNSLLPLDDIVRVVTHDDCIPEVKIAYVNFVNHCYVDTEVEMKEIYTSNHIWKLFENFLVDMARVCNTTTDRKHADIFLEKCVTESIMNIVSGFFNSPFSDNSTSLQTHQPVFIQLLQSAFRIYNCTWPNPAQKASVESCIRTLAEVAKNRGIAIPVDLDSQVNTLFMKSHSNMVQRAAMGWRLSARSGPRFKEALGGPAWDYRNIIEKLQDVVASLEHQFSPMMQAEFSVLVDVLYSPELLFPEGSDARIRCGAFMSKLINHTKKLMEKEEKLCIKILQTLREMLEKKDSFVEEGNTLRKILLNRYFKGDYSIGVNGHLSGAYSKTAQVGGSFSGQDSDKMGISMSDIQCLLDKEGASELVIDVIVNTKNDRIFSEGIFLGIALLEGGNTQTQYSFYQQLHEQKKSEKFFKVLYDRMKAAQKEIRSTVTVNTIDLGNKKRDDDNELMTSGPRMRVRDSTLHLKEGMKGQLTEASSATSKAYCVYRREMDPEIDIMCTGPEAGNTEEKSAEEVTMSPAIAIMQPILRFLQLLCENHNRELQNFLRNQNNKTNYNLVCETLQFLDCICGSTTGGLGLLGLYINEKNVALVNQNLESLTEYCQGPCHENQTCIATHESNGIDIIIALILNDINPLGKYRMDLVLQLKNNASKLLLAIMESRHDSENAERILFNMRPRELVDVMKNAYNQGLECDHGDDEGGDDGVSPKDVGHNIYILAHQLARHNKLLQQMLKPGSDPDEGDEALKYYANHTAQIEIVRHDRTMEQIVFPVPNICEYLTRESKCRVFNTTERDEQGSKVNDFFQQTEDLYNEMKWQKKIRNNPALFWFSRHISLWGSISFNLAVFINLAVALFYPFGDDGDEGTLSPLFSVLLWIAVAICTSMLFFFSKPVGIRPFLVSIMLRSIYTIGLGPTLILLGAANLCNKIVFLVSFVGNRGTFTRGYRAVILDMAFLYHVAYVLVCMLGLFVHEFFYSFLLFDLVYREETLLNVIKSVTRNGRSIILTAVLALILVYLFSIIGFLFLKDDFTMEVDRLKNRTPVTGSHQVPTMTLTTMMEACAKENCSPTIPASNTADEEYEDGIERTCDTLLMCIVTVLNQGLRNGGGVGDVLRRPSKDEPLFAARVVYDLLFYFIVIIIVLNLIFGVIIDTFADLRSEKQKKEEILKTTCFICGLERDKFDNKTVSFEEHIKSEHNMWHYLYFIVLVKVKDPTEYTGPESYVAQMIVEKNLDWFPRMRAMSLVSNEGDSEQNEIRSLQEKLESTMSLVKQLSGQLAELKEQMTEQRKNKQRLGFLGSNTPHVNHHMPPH
T5 sequence (P53667 whole entry): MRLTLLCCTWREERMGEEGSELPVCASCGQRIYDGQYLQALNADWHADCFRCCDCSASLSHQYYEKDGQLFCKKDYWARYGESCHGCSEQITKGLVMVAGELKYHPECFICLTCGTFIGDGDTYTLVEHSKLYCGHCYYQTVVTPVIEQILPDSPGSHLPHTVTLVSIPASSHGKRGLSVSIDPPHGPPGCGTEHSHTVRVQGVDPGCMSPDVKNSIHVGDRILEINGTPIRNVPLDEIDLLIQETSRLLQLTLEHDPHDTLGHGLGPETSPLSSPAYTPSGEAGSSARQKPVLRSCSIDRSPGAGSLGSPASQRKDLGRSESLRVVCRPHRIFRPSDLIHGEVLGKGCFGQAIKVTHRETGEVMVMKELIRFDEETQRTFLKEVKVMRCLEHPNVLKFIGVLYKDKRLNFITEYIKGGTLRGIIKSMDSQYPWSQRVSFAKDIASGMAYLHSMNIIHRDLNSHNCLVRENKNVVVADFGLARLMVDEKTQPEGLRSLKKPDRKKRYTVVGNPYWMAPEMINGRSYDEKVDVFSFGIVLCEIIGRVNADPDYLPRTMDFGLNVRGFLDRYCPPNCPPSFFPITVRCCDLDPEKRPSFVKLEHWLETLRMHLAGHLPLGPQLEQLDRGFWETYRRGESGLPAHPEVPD
T7 sequence (P12931 whole entry): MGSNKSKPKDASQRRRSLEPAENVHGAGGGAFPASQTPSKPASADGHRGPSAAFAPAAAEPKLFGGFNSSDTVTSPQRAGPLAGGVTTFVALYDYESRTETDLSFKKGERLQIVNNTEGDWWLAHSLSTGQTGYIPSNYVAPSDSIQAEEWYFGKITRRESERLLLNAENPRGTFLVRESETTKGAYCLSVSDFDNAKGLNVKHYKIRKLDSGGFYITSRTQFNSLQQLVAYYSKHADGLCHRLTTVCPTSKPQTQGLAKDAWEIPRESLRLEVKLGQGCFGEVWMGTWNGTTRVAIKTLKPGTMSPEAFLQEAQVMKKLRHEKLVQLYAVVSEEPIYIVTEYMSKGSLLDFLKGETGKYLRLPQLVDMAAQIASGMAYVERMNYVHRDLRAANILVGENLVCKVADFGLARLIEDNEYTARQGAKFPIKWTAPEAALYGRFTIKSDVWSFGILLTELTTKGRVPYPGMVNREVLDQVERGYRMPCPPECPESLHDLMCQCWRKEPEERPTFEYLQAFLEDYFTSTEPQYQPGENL

| Compound | % engagement ABCA2_C2385 [1] | % engagement ANGEL1_C27 [2] | % engagement DCUN1D4_C219 [3] | % engagement ITPR2_C292 [4] | % engagement LIMK1_C349 [5] | % engagement MGST3_C56 [6] | % engagement SRC_C280 [7] | % engagement LIMK1_349 [5] |
| --- | --- | --- | --- | --- | --- | --- | --- | --- |
| C=CC(=O)N1C[C@@H](c2ccc(Br)cc2)[C@H]1C(=O)Nc1cccc2cccnc12 [MY-1A, (2S,3R)-1-acryloyl-3-(4-bromophenyl)-N-(quinolin-8-yl)azetidine-2-carboxamide] | 33% | 63% | 45.5% | 24.5% | 45.25% | 58.75% | 17.75% | – |
| C=CC(=O)N1C[C@H](c2ccc(Br)cc2)[C@@H]1C(=O)Nc1cccc2cccnc12 [MY-1B, (2R,3S)-1-acryloyl-3-(4-bromophenyl)-N-(quinolin-8-yl)azetidine-2-carboxamide] | 78% | 66.5% | 82.5% | 70% | 93% | 58% | 92.25% | 90.88% |
| C=CC(=O)N1C[C@H](c2ccc(Br)cc2)[C@H]1C(=O)Nc1cccc2cccnc12 [MY-3A, (2S,3S)-1-acryloyl-3-(4-bromophenyl)-N-(quinolin-8-yl)azetidine-2-carboxamide] | 42.5% | 45.5% | 33.5% | 48.5% | 21.5% | 63.5% | 2% | – |
| C=CC(=O)N1C[C@H](c2ccc(Br)cc2)[C@H]1C(=O)Nc1cccc2cccnc12 [MY-3B, (2S,3S)-1-acryloyl-3-(4-bromophenyl)-N-(quinolin-8-yl)azetidine-2-carboxamide] | 72.5% | 54.5% | −17% | 50.5% | 43.25% | 73.5% | 64% | – |
| CC#CC(=O)N1C[C@H](c2ccc(Br)cc2)[C@@H]1C(=O)Nc1cccc2cccnc12 [MY-45B, (2R,3S)-3-(4-bromophenyl)-1-(but-2-ynoyl)-N-(quinolin-8-yl)azetidine-2-carboxamide] | – | – | – | – | – | – | – | −15.75% |
